According to EP4141110A1 (priority 2020, dated 2021):
Values joined by “and” are separate entries in the source; they are usually repeats but may differ in a detail not shown here. Equal entries are not always repeated.

Experiments:
[1] = system: PC3 line; assay type: cell-based
[2] = system: mice; conditions: mouse, in vivo
[3] = system: cell cultures

Structure (SMILES)	% of PC3 death in the mixture with iRGD + 6APA ligand [1]	Therapeutic ratio × 10^-7 [2]	daggl [3]	DCL [2]	dCL/ daggl [2]
[Cl][Pt-2]([Cl])([Cl])([Cl])([Cl])[Cl].[NH4+].[NH4+] [(NH4)2[PtCl6], ammonium hexachloroplatinate (IV)]	95% and 92% and 90%	5 × 10^-7	–	–	–
O=[N+]([O-])[O-].[Ag+] [AgNO3]	80% and 75% and 65%	180 × 10^-7	–	–	–
O=S(=O)(O)[S-].O=S(=O)(O)[S-].[Au].[Na+].[Na+].[Na+] [AuH2Na3O6S4, aurothiosulfate]	75% and 70% and 56%	50 × 10^-7	–	–	–
O=[N+]([O-])[O-].O=[N+]([O-])[O-].[Cu+2] [Cu(NO3)2]	85% and 82% and 65%	25 × 10^-7	–	–	–
O=[N+]([O-])[O-].O=[N+]([O-])[O-].O=[N+]([O-])[O-].[Ga+3] [Ga(NO3)3, gallium trinitrate]	90% and 82% and 75%	9.2 × 10^-7	20 pg/dL	35 µg/dL	8
[Na+].[O]=[V](=[O])[O-] [NaVO3]	70% and 55% and 40%	67 × 10^-7	1 pg/dL	2.0 µg/dL	1
O=C([O-])[O-].O=C([O-])[O-].O=C([O-])[O-].[Tl+3].[Tl+3] [Tl2(CO3)3]	95% and 92% and 89%	14.6 × 10^-7	9 pg/dL	19 µg/dL	0.5
O=C([O-])[O-].[Tl+].[Tl+] [Tl2CO3]	95% and 85% and 80%	13.1 × 10^-7	12 pg/dL	21 µg/dL	2
O=[N+]([O-])[O-].O=[N+]([O-])[O-].[Zn+2] [Zn(NO3)2]	–	50 × 10^-7	–	–	–
N.N.[Cl][Pt][Cl] [cisplatin (cis-Pt(N H3)2 Cl2), cisplatin (cis-dichlorodiamminplatin) (II), reference compound]	95% and 88% and 82%	7 × 10^-7	2 pg/dL	3.5 µg/dL	5
